Source: patent publication US20260262643A1, “HERBICIDAL BENZOXAZINES” (FMC CORPORATION, priority 2022, published 2026)

Experiments:
kochia [1] = test: Test C preemergence; type: in vivo, Bassia scoparia
Procedure, shortened: (§1)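 Soil-applied (pre) and foliar (post, 1–2 leaf, 2–10 cm) sprays; surfactant-containing non-phytotoxic solvent vehicle; loam/sand substrate. Readout: visual % control at 10 d, greenhouse, versus untreated.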

oat, wild [2] = test: Test C preemergence; type: in vivo, Avena fatua
Procedure, shortened: as §1

barnyardgrass [3] = test: Test C preemergence; type: in vivo, Echinochloa crusgalli
Procedure, shortened: as §1

barnyardgrass [4] = test: Test C postemergence; type: in vivo, Echinochloa crusgalli; details: 10 days, 0 to 100 scale (0 no effect, 100 complete control)
Procedure, shortened: as §1

wheat [5] = test: Test C postemergence; type: in vivo, Triticum aestivum; details: 10 days, 0 to 100 scale (0 no effect, 100 complete control)
Procedure, shortened: as §1

foxtail, giant [6] = test: Test C preemergence; type: in vivo, Setaria faberi
Description: (§2) Seeds of plant species selected from barnyardgrass (Echinochloa crusgalli), blackgrass (Alopecurus myosuroides), corn (Zea mays), foxtail, giant (giant foxtail, Setaria faberi), green foxtail (Setaria viridis), goosegrass (Eleusine indica), kochia (Bassia scoparia), oat, wild (wild oat, Avena fatua), pigweed, palmer (palmer amaranth, palmer pigweed, Amaranthus palmeri), Pigweed, Redroot (redroot pigweed, Amaranthus retroflexus), ragweed (common ragweed, Ambrosia artemisiifolia), ryegrass, Italian ([…] ryegrass, Lolium multiflorum), soybean (Glycine max), and wheat (Triticum aestivum) were planted into a blend of loam soil and sand and treated preemergence with a directed soil spray using test chemicals formulated in a non-phytotoxic solvent mixture which included a surfactant. At the same time, plants selected from these crops and weed species and also galium (catchweed bedstraw, Galium aparine) and horseweed (Erigeron canadensis) were planted in pots containing the same blend of loam soil and sand and treated with postemergence applications of test chemicals formulated in the same manner. Plants ranged in height from 2 to 10 cm and were in the one- to two-leaf stage for the postemergence treatment. Treated plants and untreated controls were maintained in a greenhouse for 10 days, after which time all treated plants were compared to untreated controls and visually evaluated for injury. Plant response ratings, summarized in Table C, are based on a 0 to 100 scale where 0 is no effect and 100 is complete control. A dash (-) response means no test result.

kochia [7] = test: Test C postemergence; type: in vivo, Bassia scoparia; details: 10 days, 0 to 100 scale (0 no effect, 100 complete control)
Procedure, shortened: as §1

galium = test: Test C postemergence; type: in vivo, Galium aparine; details: 10 days, 0 to 100 scale (0 no effect, 100 complete control)
Procedure, shortened: as §1

corn [8] = test: Test C postemergence; type: in vivo, Zea mays; details: 10 days, 0 to 100 scale (0 no effect, 100 complete control)
Procedure, shortened: as §1

pigweed, palmer [9] = test: Test C preemergence; type: in vivo, Amaranthus palmeri
Procedure, shortened: as §1

foxtail, giant [10] = test: Test C postemergence; type: in vivo, Setaria faberi; details: 10 days, 0 to 100 scale (0 no effect, 100 complete control)
Description: as §2

ryegrass, Italian [11] = test: Test C postemergence; type: in vivo, Lolium multiflorum; details: 10 days, 0 to 100 scale (0 no effect, 100 complete control)
Procedure, shortened: as §1

ryegrass, Italian [12] = test: Test C preemergence; type: in vivo, Lolium multiflorum
Procedure, shortened: as §1

ragweed [13] = test: Test C preemergence; type: in vivo, Ambrosia artemisiifolia
Procedure, shortened: as §1

corn [14] = test: Test C preemergence; type: in vivo, Zea mays
Procedure, shortened: as §1

blackgrass [15] = test: Test C postemergence; type: in vivo, Alopecurus myosuroides; details: 10 days, 0 to 100 scale (0 no effect, 100 complete control)
Procedure, shortened: as §1

sedge, umbrella = test: Test D flooded paddy test; type: in vivo, Cyperus difformis; details: 250 g ai/ha, applied to paddy water, visual rating after 13 to 14 days, scale 0 to 100 (0 no effect, 100 complete control)
Procedure, shortened: (§3)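 Compounds go straight into paddy water over 2-leaf plants in pots flooded to 3 cm. Greenhouse holding lasts 13 to 14 days. Injury is scored by eye against controls from 0 (none) to 100 (complete control).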

rice = test: Test D flooded paddy test; type: in vivo, Oryza sativa; details: 250 g ai/ha, applied to paddy water, visual rating after 13 to 14 days, scale 0 to 100 (0 no effect, 100 complete control)
Procedure, shortened: as §3

blackgrass [16] = test: Test C preemergence; type: in vivo, Alopecurus myosuroides
Procedure, shortened: as §1

ragweed [17] = test: Test C postemergence; type: in vivo, Ambrosia artemisiifolia; details: 10 days, 0 to 100 scale (0 no effect, 100 complete control)
Procedure, shortened: as §1

ducksalad = test: Test D flooded paddy test; type: in vivo, Heteranthera limosa; details: 250 g ai/ha, applied to paddy water, visual rating after 13 to 14 days, scale 0 to 100 (0 no effect, 100 complete control)
Procedure, shortened: as §3

pigweed, palmer [18] = test: Test C postemergence; type: in vivo, Amaranthus palmeri; details: 10 days, 0 to 100 scale (0 no effect, 100 complete control)
Procedure, shortened: as §1

soybean [19] = test: Test C postemergence; type: in vivo, Glycine max; details: 10 days, 0 to 100 scale (0 no effect, 100 complete control)
Procedure, shortened: as §1

horseweed = test: Test C postemergence; type: in vivo, Erigeron canadensis; details: 10 days, 0 to 100 scale (0 no effect, 100 complete control)
Procedure, shortened: as §1

oat, wild [20] = test: Test C postemergence; type: in vivo, Avena fatua; details: 10 days, 0 to 100 scale (0 no effect, 100 complete control)
Procedure, shortened: as §1

wheat [21] = test: Test C preemergence; type: in vivo, Triticum aestivum
Procedure, shortened: as §1

soybean [22] = test: Test C preemergence; type: in vivo, Glycine max
Procedure, shortened: as §1

barnyardgrass [23] = test: Test D flooded paddy test; type: in vivo, Echinochloa crus-galli; details: 250 g ai/ha, applied to paddy water, visual rating after 13 to 14 days, scale 0 to 100 (0 no effect, 100 complete control)
Procedure, shortened: as §3

[24] = 500 g ai/ha, preemergence, 0 to 100 scale (0 no effect, 100 complete control)
[25] = Preemergence, 125 g ai/ha, 0 to 100 scale, 0 no effect, 100 complete control

C[C@H]1CN(C(=O)c2cc(-n3cncn3)cc(C(F)(F)F)c2)c2cccc(Cl)c2O1 [Compound 335]
20: Kochia plant response rating (kochia [1]; [24]) | Plant response rating, Barnyardgrass (barnyardgrass [3]; [25]) | Plant response rating, Barnyardgrass (barnyardgrass [4]; 500 g ai/ha, postemergence) | Plant response rating, Wheat (wheat [5]; 500 g ai/ha, postemergence) | Plant response rating, Foxtail, Giant (foxtail, giant [10]; Postemergence, 125 g ai/ha) | Plant response rating, Blackgrass (blackgrass [15]; 500 g ai/ha, postemergence) | Plant response rating, Blackgrass (blackgrass [16]; [25]) | Plant response rating, Ragweed (ragweed [17]; 500 g ai/ha, postemergence)
100: Plant response rating, Soybean (soybean [19]; 500 g ai/ha, postemergence)
30: Plant response rating, Foxtail, Giant (foxtail, giant [6]; [25]) | Plant response rating, Kochia (kochia [7]; 500 g ai/ha, postemergence) | Plant response rating, Ryegrass, Italian (ryegrass, Italian [11]; 500 g ai/ha, postemergence) | Plant response rating, Ryegrass, Italian (ryegrass, Italian [12]; [25]) | Soybean plant response rating (soybean [22]; [24])
0: Plant response rating, Kochia (kochia [1]; [25]) | Plant response rating, Oat, Wild (oat, wild [2]; [25]) | Plant response rating, Pigweed, Palmer (pigweed, palmer [9]; [25]) | Ragweed plant response rating (ragweed [13]; [24]) | Plant response rating, Ragweed (ragweed [13]; [25]) | Plant response rating, Corn (corn [14]; [25]) | Plant response rating, Blackgrass (blackgrass [15]; Postemergence, 125 g ai/ha) | Plant response rating, Rice (Flood) (rice) | Plant response rating, Ragweed (ragweed [17]; Postemergence, 125 g ai/ha) | Plant response rating, Horseweed (horseweed; 500 g ai/ha, postemergence) | Plant response rating, Horseweed (horseweed; Postemergence, 125 g ai/ha) | Plant response rating, Oat, Wild (oat, wild [20]; 500 g ai/ha, postemergence) | Plant response rating, Oat, Wild (oat, wild [20]; Postemergence, 125 g ai/ha) | Wheat plant response rating (wheat [21]; [24]) | Plant response rating, Wheat (wheat [21]; [25]) | Plant response rating, Soybean (soybean [22]; [25]) | Plant response rating, Barnyardgrass (Flood) (barnyardgrass [23])
35: Plant response rating, Sedge, Umbrella (Flood) (sedge, umbrella) | Plant response rating, Ducksalad (Flood) (ducksalad)
60: Barnyardgrass plant response rating (barnyardgrass [3]; [24]) | Pigweed, Palmer plant response rating (pigweed, palmer [9]; [24]) | Plant response rating, Pigweed, Palmer (pigweed, palmer [18]; 500 g ai/ha, postemergence)
10: Oat, Wild plant response rating (oat, wild [2]; [24]) | Plant response rating, Barnyardgrass (barnyardgrass [4]; Postemergence, 125 g ai/ha) | Plant response rating, Wheat (wheat [5]; Postemergence, 125 g ai/ha) | Plant response rating, Kochia (kochia [7]; Postemergence, 125 g ai/ha) | Plant response rating, Corn (corn [8]; 500 g ai/ha, postemergence) | Plant response rating, Corn (corn [8]; Postemergence, 125 g ai/ha) | Plant response rating, Ryegrass, Italian (ryegrass, Italian [11]; Postemergence, 125 g ai/ha) | Corn plant response rating (corn [14]; [24]) | Plant response rating, Pigweed, Palmer (pigweed, palmer [18]; Postemergence, 125 g ai/ha)
50: Plant response rating, Galium (galium; 500 g ai/ha, postemergence) | Plant response rating, Galium (galium; Postemergence, 125 g ai/ha) | Plant response rating, Foxtail, Giant (foxtail, giant [10]; 500 g ai/ha, postemergence)
80: Ryegrass, Italian plant response rating (ryegrass, Italian [12]; [24]) | Blackgrass plant response rating (blackgrass [16]; [24])
90: Foxtail, Giant plant response rating (foxtail, giant [6]; [24]) | Plant response rating, Soybean (soybean [19]; Postemergence, 125 g ai/ha)
